# Measurements reported in US9133183B2, “Imidazolidinones and analogs exhibiting anti-cancer and anti-proliferative activities” (Deciphera Pharmaceuticals, LLC, priority 2013, dated 2015).
# Where two headings read alike, the source gives them in different places.
# Tests used:
# [1] = molecular target: unphosphorylated c-FMS kinase (uFMS, Seq. ID no. 1) (Homo sapiens (Human), UniProt P07333); test: uFMS kinase assay (ADP production coupled to pyruvate kinase/lactate dehydrogenase); type: biochemical
# Sequence of unphosphorylated c-FMS kinase (uFMS, Seq. ID no. 1) (P07333 538-972): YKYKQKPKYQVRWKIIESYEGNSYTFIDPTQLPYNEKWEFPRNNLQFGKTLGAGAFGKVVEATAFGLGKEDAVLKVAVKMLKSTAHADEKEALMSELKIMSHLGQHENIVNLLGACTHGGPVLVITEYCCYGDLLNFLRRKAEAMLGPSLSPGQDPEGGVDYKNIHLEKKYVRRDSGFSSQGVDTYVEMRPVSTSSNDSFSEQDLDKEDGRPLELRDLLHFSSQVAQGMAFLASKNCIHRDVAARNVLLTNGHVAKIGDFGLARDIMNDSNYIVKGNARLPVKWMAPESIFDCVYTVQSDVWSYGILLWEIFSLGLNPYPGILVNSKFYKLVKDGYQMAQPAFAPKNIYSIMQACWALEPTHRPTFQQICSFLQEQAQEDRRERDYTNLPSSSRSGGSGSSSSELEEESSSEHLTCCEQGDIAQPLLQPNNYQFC
# Outline: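 Unphosphorylated FMS (10 nM) with polyE4Y 1 mg/mL and 500 μM ATP in 90 mM Tris pH 7.5, 10 mM MgCl2, 0.2% octyl-glucoside, 1% DMSO. ADP formation was coupled via pyruvate kinase/LDH to NADH oxidation, followed at A340 for 4 h at 30° C.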
# [2] = molecular target: unphosphorylated c-KIT kinase (uKIT, Seq. ID no. 2) (Homo sapiens (Human), UniProt P10721); test: uKit kinase assay (coupled pyruvate kinase/lactate dehydrogenase); type: biochemical; details: enzymatic assay, ATP 2000 μM
# Sequence of unphosphorylated c-KIT kinase (uKIT, Seq. ID no. 2) (P10721 other isoform, or with tags, fused parts or gaps): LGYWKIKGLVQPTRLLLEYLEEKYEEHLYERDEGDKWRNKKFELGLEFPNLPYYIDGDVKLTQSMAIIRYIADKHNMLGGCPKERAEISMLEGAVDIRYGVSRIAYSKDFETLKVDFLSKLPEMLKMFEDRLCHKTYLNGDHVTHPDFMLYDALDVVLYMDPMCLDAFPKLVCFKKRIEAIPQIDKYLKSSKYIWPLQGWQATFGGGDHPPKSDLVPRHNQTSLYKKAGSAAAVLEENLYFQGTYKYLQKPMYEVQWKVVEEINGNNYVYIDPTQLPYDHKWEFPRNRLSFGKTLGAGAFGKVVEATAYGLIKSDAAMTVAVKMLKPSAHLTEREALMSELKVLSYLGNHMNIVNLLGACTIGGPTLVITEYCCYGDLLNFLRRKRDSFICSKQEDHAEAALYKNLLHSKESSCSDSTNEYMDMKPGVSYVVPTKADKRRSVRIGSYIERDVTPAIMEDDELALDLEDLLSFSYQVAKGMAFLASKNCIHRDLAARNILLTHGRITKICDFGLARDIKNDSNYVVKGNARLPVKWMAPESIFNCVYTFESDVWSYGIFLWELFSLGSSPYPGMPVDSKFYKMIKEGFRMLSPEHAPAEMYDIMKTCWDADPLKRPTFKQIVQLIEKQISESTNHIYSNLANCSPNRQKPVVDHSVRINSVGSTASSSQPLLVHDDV
# Outline: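 The read-out was a continuous PK/LDH-coupled decrease in NADH absorbance at 340 nm, monitored at 30 °C over 4 h. IC50 came from % inhibition based on rates at 3–4 h. The GST-tagged unphosphorylated KIT (12 nM) was used with polyE4Y substrate, 2000 μM ATP and 10 mM Mg2+ at pH 7.5, with serially diluted compound.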
# osteoclast precursors = test: Osteoclast tartrate-resistant acid phosphatase assay; type: cell-based; details: Osteoclast, 7-14 days, RANKL and M-CSF
# [3] = molecular target: c-FMS kinase in THP-1 cells (Homo sapiens (Human), UniProt P07333); test: Phospho-FMS ELISA assay in THP-1 cells; type: cell-based
# Sequence of c-FMS kinase in THP-1 cells (P07333 20-972): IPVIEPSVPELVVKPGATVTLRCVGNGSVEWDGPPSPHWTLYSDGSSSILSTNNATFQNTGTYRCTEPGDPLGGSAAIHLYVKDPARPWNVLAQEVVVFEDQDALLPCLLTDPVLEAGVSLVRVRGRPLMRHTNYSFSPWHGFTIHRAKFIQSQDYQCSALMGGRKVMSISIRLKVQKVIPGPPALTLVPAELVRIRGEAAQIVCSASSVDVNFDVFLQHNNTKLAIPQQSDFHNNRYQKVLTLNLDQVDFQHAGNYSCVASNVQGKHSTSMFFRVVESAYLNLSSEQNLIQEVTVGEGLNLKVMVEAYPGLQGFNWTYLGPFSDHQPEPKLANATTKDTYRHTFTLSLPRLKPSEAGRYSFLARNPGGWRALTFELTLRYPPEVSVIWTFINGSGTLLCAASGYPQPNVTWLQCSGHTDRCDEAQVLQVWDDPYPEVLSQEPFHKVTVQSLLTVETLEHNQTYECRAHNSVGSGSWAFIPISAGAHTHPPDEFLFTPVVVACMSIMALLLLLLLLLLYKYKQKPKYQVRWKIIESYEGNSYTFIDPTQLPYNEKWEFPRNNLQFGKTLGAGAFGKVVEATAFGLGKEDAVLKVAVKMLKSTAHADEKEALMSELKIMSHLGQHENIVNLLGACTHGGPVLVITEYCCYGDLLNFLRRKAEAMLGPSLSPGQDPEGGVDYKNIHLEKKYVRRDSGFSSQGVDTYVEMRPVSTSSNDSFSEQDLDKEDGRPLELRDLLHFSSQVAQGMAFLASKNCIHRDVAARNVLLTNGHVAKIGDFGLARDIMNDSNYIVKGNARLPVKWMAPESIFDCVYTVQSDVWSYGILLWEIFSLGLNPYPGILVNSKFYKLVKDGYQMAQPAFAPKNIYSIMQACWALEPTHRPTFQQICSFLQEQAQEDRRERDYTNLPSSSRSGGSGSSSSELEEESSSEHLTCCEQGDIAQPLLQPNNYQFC
# Experimental: THP-1 cells (catalog #TIB-202) were obtained from the ATCC. Briefly, cells were grown in RPMI 1640 supplemented with 10% characterized fetal bovine serum, 1% sodium pyruvate, 1% Penicillin-Streptomycin-Glutamine (PSG) and 55 uM 2-mercaptoethanol (Invitrogen, Carlsbad, Calif.) at 37 degrees Celsius, 5% CO2, 95% humidity. Cells were allowed to expand until reaching 70-95% confluency at which point they were subcultured or harvested for assay use.
# A serial dilution of test compound was diluted 1:100 in assay medium (RPMI 1640 supplemented with 10% characterized fetal bovine serum) in a 96 well black clear bottom plate (Corning, Corning, N.Y.). In a separate 96 well black clear bottom plate, one hundred and fifty thousand THP-1 cells were added per well in 100 μL in assay medium. Fifty microliters of diluted compound was then added to the cells. Plates were incubated for 4 hours at 37 degrees Celsius, 5% CO2, 95% humidity. At the end of the incubation period, cells were stimulated with 50 μL of a 100 nM solution of recombinant human M-CSF (catalog #216-MC, R & D Systems, Minneapolis, Minn.) in assay medium and the plate was incubated for 5 minutes at 37 degrees Celsius, 5% CO2, 95% humidity. Lysates were prepared and used to perform the phospho-FMS ELISA as described by the manufacturer (catalog #DYC3268, R & D Systems, Minneapolis, Minn.). GraphPad Prism was used to calculate IC50 values obtained from data generated from the ELISA assay.
# [4] = enzymatic assay, ATP 500 μM, read-out: uFMS
# [5] = 4 h compound, M-CSF stimulation 5 min, read-out: pFMS inhibition in THP-1 cells
Structure (SMILES),"IC50 [1, 4]",IC50 [2],IC50 (osteoclast precursors),"IC50 [3, 5]","IC50 ([1]; uFMS, enzymatic assay, ATP 500 μM)",IC50 [3],"IC50 ([1]; Table 4, read-out: c-FMS IC50)"
"Cc1nc(NC(=O)N2CCN(CC(F)(F)F)C2=O)ccc1Oc1ccnc(-c2cnn(C)c2)c1 [Example 43, N-(6-methyl-5-((2-(1-methyl-1H-pyrazol-4-yl)pyridin-4-yl)oxy)pyridin-2-yl)-2-oxo-3-(2,2,2-trifluoroethyl)imidazolidine-1-carboxamide]",< 10 nM,100 to 1000 nM,< 10 nM,10 to 100 nM,–,–,–
"COCCCN1CCN(C(=O)Nc2ccc(Oc3ccnc(-c4cnn(C)c4)c3)c(C)n2)C1=O [Example 19, 3-(3-methoxypropyl)-N-(6-methyl-5-((2-(1-methyl-1H-pyrazol-4-yl)pyridin-4-yl)oxy)pyridin-2-yl)-2-oxoimidazolidine-1-carboxamide]",10 to 100 nM,10 to 100 nM,10 to 100 nM,10 to 100 nM,–,–,–
"Cc1ccc(-c2cc(Oc3ccc(NC(=O)N4CCN(C5CCOCC5)C4=O)nc3C)ccn2)cn1 [Example 54, N-(6-methyl-5-((6′-methyl-[2,3′-bipyridin]-4-yl)oxy)pyridin-2-yl)-2-oxo-3-(tetrahydro-2H-pyran-4-yl)imidazolidine-1-carboxamide]",10 to 100 nM,100 to 1000 nM,10 to 100 nM,100 to 1000 nM,–,–,–
"Cc1nc(NC(=O)N2CCN(C)C2=O)ccc1Oc1ccnc(-c2cnn(C)c2)c1 [Example 41, 3-methyl-N-(6-methyl-5-((2-(1-methyl-1H-pyrazol-4-yl)pyridin-4-yl)oxy)pyridin-2-yl)-2-oxoimidazolidine-1-carboxamide]",–,> 1000 nM,10 to 100 nM,–,10 to 100 nM,10 to 100 nM,–
"Cn1cc(-c2cc(Oc3ccc(NC(=O)N4CCN(CCOC(F)(F)F)C4=O)nc3)ccn2)cn1 [Example 21, N-(5-((2-(1-methyl-1H-pyrazol-4-yl)pyridin-4-yl)oxy)pyridin-2-yl)-2-oxo-3-(2-(trifluoromethoxy)ethyl)imidazolidine-1-carboxamide]",10 to 100 nM,10 to 100 nM,10 to 100 nM,10 to 100 nM,–,–,–
"Cc1nc(NC(=O)N2CCN(C3CCCC3)C2=O)ccc1Oc1ccnc(-c2cnn(C)c2)c1 [Example 29, 3-cyclopentyl-N-(6-methyl-5-((2-(1-methyl-1H-pyrazol-4-yl)pyridin-4-yl)oxy)pyridin-2-yl)-2-oxoimidazolidine-1-carboxamide]",< 10 nM,< 10 nM,< 10 nM,10 to 100 nM,–,–,2 nM
"Cc1nc(NC(=O)N2CCN(C(C)(C)C)C2=O)ccc1Oc1ccnc(-c2cnn(C)c2)c1 [Example 33, 3-(tert-butyl)-N-(6-methyl-5-((2-(1-methyl-1H-pyrazol-4-yl)pyridin-4-yl)oxy)pyridin-2-yl)-2-oxoimidazolidine-1-carboxamide]",< 10 nM,< 10 nM,10 to 100 nM,< 10 nM,–,–,–
"Cc1nc(NC(=O)N2CCN(C(C)C)C2=O)ccc1Oc1ccnc(-c2cnn(C)c2)c1 [Example 35, 3-isopropyl-N-(6-methyl-5-((2-(1-methyl-1H-pyrazol-4-yl)pyridin-4-yl)oxy)pyridin-2-yl)-2-oxoimidazolidine-1-carboxamide]",< 10 nM,100 to 1000 nM,< 10 nM,< 10 nM,–,–,–
"CCN1CCN(C(=O)Nc2ccc(Oc3ccnc(-c4cnc(C)o4)c3)cn2)C1=O [Example 117, 3-ethyl-N-(5-((2-(2-methyloxazol-5-yl)pyridin-4-yl)oxy)pyridin-2-yl)-2-oxoimidazolidine-1-carboxamide]",100 to 1000 nM,100 to 1000 nM,10 to 100 nM,10 to 100 nM,–,–,–
"Cc1nc(NC(=O)N2CCN(C3CCC(F)(F)CC3)C2=O)ccc1Oc1ccnc(-c2cnn(C)c2)c1 [Example 26, 3-(4,4-difluorocyclohexyl)-N-(6-methyl-5-((2-(1-methyl-1H-pyrazol-4-yl)pyridin-4-yl)oxy)pyridin-2-yl)-2-oxoimidazolidine-1-carboxamide]",< 10 nM,10 to 100 nM,10 to 100 nM,10 to 100 nM,–,–,–
"COCCN1CCN(C(=O)Nc2ccc(Oc3ccnc(-c4cnn(C)c4)c3)c(C)n2)C1=O [Example 18, 3-(2-methoxyethyl)-N-(6-methyl-5-((2-(1-methyl-1H-pyrazol-4-yl)pyridin-4-yl)oxy)pyridin-2-yl)-2-oxoimidazolidine-1-carboxamide]",10 to 100 nM,100 to 1000 nM,10 to 100 nM,10 to 100 nM,–,–,20 nM
"CCN1CCN(C(=O)Nc2cc(C)c(Oc3ccnc(-n4cnc(C)c4)c3)cn2)C1=O [Example 88, 3-ethyl-N-(4-methyl-5-((2-(4-methyl-1H-imidazol-1-yl)pyridin-4-yl)oxy)pyridin-2-yl)-2-oxoimidazolidine-1-carboxamide]",10 to 100 nM,100 to 1000 nM,10 to 100 nM,10 to 100 nM,–,–,–
"COCCCN1CCN(C(=O)Nc2ccc(Oc3ccnc(-c4cnn(C)c4)c3)cn2)C1=O [Example 11, 3-(3-methoxypropyl)-N-(5-((2-(1-methyl-1H-pyrazol-4-yl)pyridin-4-yl)oxy)pyridin-2-yl)-2-oxoimidazolidine-1-carboxamide]",10 to 100 nM,10 to 100 nM,< 10 nM,10 to 100 nM,–,–,–
"CCN1CCN(C(=O)Nc2ccc(Oc3ccnc(-c4ccnc(C)c4)c3)c(C)n2)C1=O [Example 118, 3-ethyl-N-(6-methyl-5-((2′-methyl-[2,4′-bipyridin]-4-yl)oxy)pyridin-2-yl)-2-oxoimidazolidine-1-carboxamide]",10 to 100 nM,> 1000 nM,10 to 100 nM,10 to 100 nM,–,–,–
"Cn1cc(-c2cc(Oc3ccc(NC(=O)N4CCN(C(C)(C)C)C4=O)nc3)ccn2)cn1 [Example 34, 3-(tert-butyl)-N-(5-((2-(1-methyl-1H-pyrazol-4-yl)pyridin-4-yl)oxy)pyridin-2-yl)-2-oxoimidazolidine-1-carboxamide]",< 10 nM,< 10 nM,10 to 100 nM,< 10 nM,–,–,–
"CCc1nc(NC(=O)N2CCN(CC(F)(F)F)C2=O)ccc1Oc1ccnc(-c2cnn(C)c2)c1 [Example 56, N-(6-ethyl-5-((2-(1-methyl-1H-pyrazol-4-yl)pyridin-4-yl)oxy)pyridin-2-yl)-2-oxo-3-(2,2,2-trifluoroethyl)imidazolidine-1-carboxamide]",10 to 100 nM,> 1000 nM,100 to 1000 nM,100 to 1000 nM,–,–,–
"CCc1nc(NC(=O)N2CCN(C3CC3)C2=O)ccc1Oc1ccnc(-c2cnn(C)c2)c1 [Example 58, 3-cyclopropyl-N-(6-ethyl-5-((2-(1-methyl-1H-pyrazol-4-yl)pyridin-4-yl)oxy)pyridin-2-yl)-2-oxoimidazolidine-1-carboxamide]",10 to 100 nM,> 1000 nM,10 to 100 nM,10 to 100 nM,–,–,–
"CCc1nc(NC(=O)N2CCN(C3CCCC3)C2=O)ccc1Oc1ccnc(-c2cnn(C)c2)c1 [Example 57, 3-cyclopentyl-N-(6-ethyl-5-((2-(1-methyl-1H-pyrazol-4-yl)pyridin-4-yl)oxy)pyridin-2-yl)-2-oxoimidazolidine-1-carboxamide]",< 10 nM,> 1000 nM,10 to 100 nM,10 to 100 nM,–,–,–
"Cn1cc(-c2cc(Oc3ccc(NC(=O)N4CCN(C5CCOC5)C4=O)nc3)ccn2)cn1 (stereo in doubt) [Example 12, (S)—N-(5-((2-(1-methyl-1H-pyrazol-4-yl)pyridin-4-yl)oxy)pyridin-2-yl)-2-oxo-3-(tetrahydrofuran-3-yl)imidazolidine-1-carboxamide]",10 to 100 nM,10 to 100 nM,< 10 nM,10 to 100 nM,–,–,–
"CCN1CCN(C(=O)Nc2ccc(Oc3ccnc(-c4cnn(C)c4)c3)c(C)n2)C1=O [Example 42, 3-ethyl-N-(6-methyl-5-((2-(1-methyl-1H-pyrazol-4-yl)pyridin-4-yl)oxy)pyridin-2-yl)-2-oxoimidazolidine-1-carboxamide]",< 10 nM,100 to 1000 nM,< 10 nM,10 to 100 nM,–,–,8 nM
"CC(C)N1CCN(C(=O)Nc2ccc(Oc3ccnc(-c4cnn(C)c4)c3)cn2)C1=O [Example 36, 3-isopropyl-N-(5-((2-(1-methyl-1H-pyrazol-4-yl)pyridin-4-yl)oxy)pyridin-2-yl)-2-oxoimidazolidine-1-carboxamide]",< 10 nM,10 to 100 nM,< 10 nM,< 10 nM,–,–,–
